For data set [1] the following is noted: humans; cited from earlier work.
The conditions of data set [2]: experimental animals; cited from earlier work.
The subject of data set [3] is human umbilical endothelia cells (HUVECs). Nature of the data set: Annexin V binding to HUVECs after 24 hrs culture with high aPLs titer serum pre-incubated with test substance, flow cytometry. Format: cell-based. The note with it: for Effect on Annexin V binding to endothelial cells: preincubation of serum known to decrease binding; for Mean % of APS, Av / Median % of APS, Av: average of three; for Mean % of APS, Av / Median % of APS, Av / Mean % of APS / Median % of APS: 24 hrs culture; for Mean % of APS / Median % of APS: single experiments; for Geo Mean (fluorescence) / Mean (fluorescence) / Median (fluorescence) / Peak Ch / % Gated (Annexin V positive region): file '100' 24 hrs on HUVEC. The protocol:
Cryopreserved pooled human umbilical venous endothelial cells (HUVECs) at passage 2 were purchased from Cascade Biologics, Inc. (Portland, Oreg., USA) the cultures were maintained in EGM™ phenol red-free medium (Clonetics, San Diego, Calif., USA), containing 2% of fetal bovine serum and supplements. The cells were incubated in 75 cm2 flasks (TPP, AG, Trasadingen, Switzerland) under humidified 5% CO2 in 37° C. conditions. All experiments were performed at passage 3 to 4. HUVECs were seeded at 2×10^4 cells/ml density in 12-well plates (NUNC, Inc, Naperville, Ill., USA) for flow cytometry analysis; at density of 1×10^4 cells/well/100 μl in 96-well plate (TPP) for MTT assay; at 8×10^3 cells/ml. density in 24-well plates (NUNC) for DNA fragmentation ELISA. After allowing 12-24 hours for attachment and careful washing with serum-free medium (SFM), the cells were made quiescent in SFM for at least 12 hrs prior to treatment. Heparin-preserved plasma from the study groups was added to the monolayer at concentration of 10% in SFM.
The cells were harvested non-enzymatically with Cell Dissociation Solution (CDS; Sigma-Aldrich, St. Louis, Mo., USA). HUVECs were carefully pooled with supernatants, to exclude selective loss of detached floating EC, and centrifuged at 1200 rpm for 7 min. After resuspension in 100 μl of Annexin V-binding buffer (Molecular Probes Inc, Eugene, Oreg., USA) samples were stained with 5 mg/ml of Annexin V-FITC (Mol. Probes) and incubated for 15 min on ice. Shortly before acquisition 1 mg/ml of propidium iodide (PI; R&DSystems Europe Ltd, Abingdon, UK) was added. Analysis was performed on a FACScan flow cytometer (BD Biosciences, San Jose, Calif., USA) equipped with CellQuest™ software. During acquisition a gate was set to exclude events smaller than 230 on linear FCS and SSC scale. For each sample 10000 events were collected.
Heparin-preserved plasma with high capacity to inhibit Annexin V binding was added to HUVECs monolayer at concentration of 10% in SFM. After 24 hrs cells were harvested with Cell Dissociation Solution (CDS; Sigma-Aldrich, St. Louis, Mo., USA) and carefully pooled with supernatants, to exclude selective loss of detached floating cells, centrifugation at 1200 rpm for 7 min followed. After resuspension in 100 μl of annexin V-binding buffer (Molecular Probes Inc, Eugene, Oreg., USA) samples were stained with 2 μl of 5 mg/ml annexin V-FITC (Molecular Probes) and incubated for 15 min on ice. Shortly before acquisition 1 mg/ml of propidium iodide (PI; a vital dye; R&DSystems Europe Ltd, Abingdon, UK) was added. Analysis was performed as described above.
The frequency of HUVECs positive for Annexin V staining was determined either as percentage of annexin V^+/PI^− cells on a bivariate dot plot or percentage of Annexin V^+ cells based on a histogram. Annexin V-binding to HUVECs in the presence of serum known to decrease binding and preincubated with IVIG was determined.
On the technique in general: A flow cytometer gives signals particle by particle.

Data set [4] can be described thus: Serum binding to antigen after preincubation of serum with antigen. Particulars: preincubation of serum with high capacity to induce decreased binding. The text has this:
Polysorp F96 microtiter immuno-plates were purchased from Nunc (Roskilde Denmark), PC-BSA (Phosphorylcholine-Bovine Serum Albumin) was purchased from Biosearch Technologies, INC (USA). Bovine serum albumin (BSA), Alkaline phosphatase conjugated goat anti-human IgG (r-chain specific), Alkaline phosphatase conjugated goat anti-human IgM (u-chain specific), PNPP(Alkaline phosphatase substrate), were obtained from Sigma (St. Louis, Mo., USA). For example, IgG and IgM antibodies to PC-BSA were determined by enzyme-linked immunosorbent assay (ELISA). Pooled serum from 17 antiphospholipid syndrome patients was used as an internal standard and tested on every plate. […] F96 microtiter polysorp plate was therefore coated with PC-BSA (10 μg/ml) 50 μl/well in PBS. Coated plates were incubated overnight at 4° C. After five washings with PBS, the plates were blocked with 2% BSA-PBS for 2 h at room temperature and washed as described above. Serum samples were diluted (1:30) in 0.2% BSA-PBS and added at 50 μl/well.

Values joined by “and” are separate entries in the source; they are usually repeats but may differ in a detail not shown here. Equal values may be shown once. Read-outs that look alike come from different tables or passages of the source.

For the compound “Annexin V: Annexin V protein, binds calcium and negatively charged phospholipids”, the “half-life in the circulation” value is “short half-life” in data set [1] and 5 to 15 min in data set [2].

In the case of `C[N+](C)(C)CCOP(=O)(O)O` [PC, phosphorylcholine], the “Effect on Annexin V binding to endothelial cells” value (from here on “Effect on Annexin V binding”) in data set [3] is “no significant effect”.

Take lysophosphatidylcholine [Lyso PC]: in data set [3] (10 μg/ml), the “Mean % of APS, Av” value is 150 % of APS; the “Median % of APS, Av” value is listed as 146 % of APS; the “Mean % of APS” value is 123.6 % of APS and 156.9 % of APS and 169.5 % of APS; the “Median % of APS” value was 121.88 % of APS and 138.23 % of APS and 178.5 % of APS. In data set [3] (100 μg/ml), the “Mean % of APS, Av” value is recorded as 156 % of APS; the “Median % of APS, Av” value is 155 % of APS; the “Mean % of APS” value is 158.1 % of APS and 114.7 % of APS and 195.12 % of APS; the “Median % of APS” value was 175.39 % of APS and 115.4 % of APS and 174.65 % of APS. In data set [3] (all events (100.00 % gated)), the “Geo Mean (fluorescence)” value is listed as 62.95, the “Mean (fluorescence)” value was 275.37, the “Median (fluorescence)” value is listed as 153.99 and the “Peak Ch” value turned out to be 1. Besides, in data set [3] (second histogram region), the “% Gated (Annexin V positive region)” value is 67.03%, the “Geo Mean (fluorescence)” value worked out at 268.96, the “Mean (fluorescence)” value is 408.50 and the “Median (fluorescence)” value was found to be 352.27. In addition, the “Peak Ch” value in data set [3] (second histogram region) is reported as 453. Moreover, the “Effect on Annexin V binding” value in data set [3] is listed as “restored Annexin V binding”. Also, the “Serum binding to antigen” value in data set [4] was “decreased serum binding to antigen”.

For `CCCCCCCCCCCCCCCCOC[C@H](COP(=O)([O-])OCC[N+](C)(C)C)OC(C)=O` [PAF], in data set [3] (10 μg/ml), the “Mean % of APS, Av” value is reported as 135 % of APS; the “Median % of APS, Av” value was 132 % of APS; the “Mean % of APS” value is 100 % of APS and 155.6 % of APS and 149.8 % of APS; the “Median % of APS” value is 99 % of APS and 134 % of APS and 164 % of APS. In addition, in data set [3] (100 μg/ml), the “Mean % of APS, Av” value is 137 % of APS; the “Median % of APS, Av” value is given as 136 % of APS; the “Mean % of APS” value is 151 % of APS and 122 % of APS and 139 % of APS; the “Median % of APS” value is 145 % of APS and 116 % of APS and 147 % of APS. In data set [3], the “Effect on Annexin V binding” value is “restored Annexin V binding”. In addition, in data set [4], the “Serum binding to antigen” value is reported as “decreased serum binding to antigen”.

With tetanus toxoid, in data set [3] (all events (100.00 % gated)), the “Geo Mean (fluorescence)” value was 47.62, the “Mean (fluorescence)” value was 155.14, the “Median (fluorescence)” value was found to be 113.42 and the “Peak Ch” value is reported as 1. Also, in data set [3] (second histogram region), the “% Gated (Annexin V positive region)” value is 66.69%, the “Geo Mean (fluorescence)” value is 173.93, the “Mean (fluorescence)” value is listed as 230.12 and the “Median (fluorescence)” value was 212.88. Further, the “Peak Ch” value in data set [3] (second histogram region) was 222.

As to phosphatidylserine, the “Effect on Annexin V binding” value in data set [3] was “restored Annexin V binding”. Besides, the “Serum binding to antigen” value in data set [4] was “decreased serum binding to antigen”.
